# Read-outs that look alike come from different tables or passages of the source.
# How the values were obtained:
# human LPA1 receptor [1] = biological target: T1, human LPA1 receptor (Homo sapiens, UniProt Q92633); test: Calcium mobilization assay in CHOLPA1 cells; details: for Effect per se: 1 µM, data not shown; for Shift of the concentration–response curve to LPA: antagonism protocol (compound 35, compound 20 at 1 µM)
# human LPA2 receptor [2] = biological target: T2, human LPA2 receptor (Homo sapiens, UniProt Q9HBW0); test: Dynamic mass redistribution (DMR) assay in CHOLPA2 cells; details: for Shift of the concentration–response curve to LPA: antagonism protocol, 1 µM; for DMR response: CHOLPA2 cells, compound 10 μM, mean ± s.e.m.
# T2 sequence (Q9HBW0 whole entry): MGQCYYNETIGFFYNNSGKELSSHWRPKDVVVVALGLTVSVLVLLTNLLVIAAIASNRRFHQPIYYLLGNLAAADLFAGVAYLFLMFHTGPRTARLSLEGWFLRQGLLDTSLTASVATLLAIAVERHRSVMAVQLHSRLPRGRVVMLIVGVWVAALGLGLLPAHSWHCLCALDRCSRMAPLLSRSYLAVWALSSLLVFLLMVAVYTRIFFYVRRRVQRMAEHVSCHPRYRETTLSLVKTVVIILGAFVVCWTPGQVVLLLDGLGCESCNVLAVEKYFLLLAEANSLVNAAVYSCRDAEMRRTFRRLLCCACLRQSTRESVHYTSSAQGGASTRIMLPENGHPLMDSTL
# Method: Confluent cells were sub-cultured using trypsin/EDTA and used for experiments. Cells were seeded at a density of 20,000 cells/well in 30 µL into fibronectin-coated EnspireTM-LC 384-well plates and cultured for 20 h to form a confluent monolayer. On the day of the experiment, the cells were manually washed twice and maintained with assay buffer (HBSS with 20 mM HEPES, 0.01% BSA) for 90 min before DMR experiments. DMR was monitored in real time with a temporal resolution of 44 s throughout the assay. Experiments were performed at 37°C using an EnSight Multimode Plate Reader (PerkinElmer). The agonism protocol was as follows: before addition of the ligand, the DMR signal was measured for 5 min, and the average of the signals recorded during this period was set as the baseline (pm = 0). Compounds are added manually in a volume of 10 µL, and the triggered DMR signals were recorded for 60 min. […] Responses were described in the form of picometer shift over time (seconds) following the subtraction of values from vehicle-treated wells. Maximum picometer (pm) modification (peak) and area under the curve (AUC) were used to determine the agonist response.
# All data were analyzed using GraphPad Prism 9.4 (La Jolla, CA, United States). Concentration–response curves were fitted using the four-parameter log-logistic equation. Data are expressed in the form mean ± s.e.m. across n experiments performed in duplicate. […] In practice, equiactive concentrations of the agonist in the absence ([A]) and presence ([A’]) of a non-competitive antagonist ([B]) were compared in a double reciprocal plot describing a straight line, and pKB was derived from the equation: pKB = log[(slope—1)/[B]]. […] Maximal effect data were analyzed using the Student’s t-test or a one-way ANOVA followed by Dunnett’s post-hoc test.
# human LPA2 receptor [3] = biological target: T2, human LPA2 receptor; test: Calcium mobilization assay in CHOLPA2 cells; details: for Effect per se / Shift of the concentration–response curve to LPA: 1 µM; for Effect per se: data not shown; for Agonism Emax / Agonism pEC50: #inactive at 1 μM; for Shift of the concentration–response curve to LPA: antagonism protocol
# LPA2 receptor = biological target: LPA2 receptor; parameters: method as in Schiemann et al., 2012; details: inhibition of LPA effects on Ca2+ mobilization, cells expressing LPA2; ref Schiemann et al., 2012; cited from earlier work
# CHO wild-type cells = test: DMR assay in CHO wild-type cells (control); format: cell-based; details: for DMR response: CHO cells, compound 10 μM, mean ± s.e.m.
# Method: Confluent cells were sub-cultured using trypsin/EDTA and used for experiments. Cells were seeded at a density of 20,000 cells/well in 30 µL into fibronectin-coated EnspireTM-LC 384-well plates and cultured for 20 h to form a confluent monolayer. On the day of the experiment, the cells were manually washed twice and maintained with assay buffer (HBSS with 20 mM HEPES, 0.01% BSA) for 90 min before DMR experiments. DMR was monitored in real time with a temporal resolution of 44 s throughout the assay. Experiments were performed at 37°C using an EnSight Multimode Plate Reader (PerkinElmer). The agonism protocol was as follows: before addition of the ligand, the DMR signal was measured for 5 min, and the average of the signals recorded during this period was set as the baseline (pm = 0). Compounds are added manually in a volume of 10 µL, and the triggered DMR signals were recorded for 60 min. The antagonism protocol was as follows: antagonists were added manually 25 min before reading the 5 min baseline. […] Responses were described in the form of picometer shift over time (seconds) following the subtraction of values from vehicle-treated wells. Maximum picometer (pm) modification (peak) and area under the curve (AUC) were used to determine the agonist response.
# human LPA1 receptor [4] = biological target: T1, human LPA1 receptor; test: Dynamic mass redistribution (DMR) assay in CHOLPA1 cells; details: for Shift of the concentration–response curve to LPA: antagonism protocol; for Agonism Emax: negative DMR signal; for DMR response: CHOLPA1 cells, compound 10 μM, mean ± s.e.m.
# Method: All data were analyzed using GraphPad Prism 9.4 (La Jolla, CA, United States). Concentration–response curves were fitted using the four-parameter log-logistic equation. Data are expressed in the form mean ± s.e.m. across n experiments performed in duplicate. Agonist potency is expressed in the form pEC50, which is the negative logarithm to base 10 of the agonist molar concentration that produces 50% of the maximal possible effect of that agonist. […] In practice, equiactive concentrations of the agonist in the absence ([A]) and presence ([A’]) of a non-competitive antagonist ([B]) were compared in a double reciprocal plot describing a straight line, and pKB was derived from the equation: pKB = log[(slope—1)/[B]]. […] Maximal effect data were analyzed using the Student’s t-test or a one-way ANOVA followed by Dunnett’s post-hoc test.
# LPA1 receptor [5] = system: LPA1 receptor; parameters: method as in Ohta et al., 2003; details: GTPγS binding assay; ref Ohta et al., 2003; cited from earlier work
# LPA1 receptor [6] = system: LPA1 receptor; parameters: method as in Ohta et al., 2003; details: inositol phosphate test; ref Ohta et al., 2003; cited from earlier work
# LPA1 receptor [7] = system: LPA1 receptor; parameters: method as in Shimizu and Nakayama, 2017; details: cAMP assay; ref Shimizu and Nakayama, 2017; cited from earlier work
# LPA1/3 [8] = system: LPA1/3; parameters: method as in Ohta et al., 2003; details: ref Ohta et al., 2003; cited from earlier work
# LPA1/3 [9] = biological target: LPA1/3; parameters: method as in Ohta et al., 2003; details: LPA1/3 antagonist; ref Ohta et al., 2003; read-out: Ki estimated from binding experiments; cited from earlier work
# [10] = CHOLPA1, calcium mobilization, #inactive at 1 μM
# [11] = CHOLPA2, DMR, negative DMR signal, peak, up to 10 µM (compound 35 up to 1 µM), °inactive at 10 μM
# [12] = CHOLPA1, DMR, peak, up to 10 µM (compound 35 up to 1 µM), °inactive at 10 μM
# [13] = CHOLPA1, calcium mobilization, *inactive at 0.1 µM
# T1 sequence (Q92633 whole entry): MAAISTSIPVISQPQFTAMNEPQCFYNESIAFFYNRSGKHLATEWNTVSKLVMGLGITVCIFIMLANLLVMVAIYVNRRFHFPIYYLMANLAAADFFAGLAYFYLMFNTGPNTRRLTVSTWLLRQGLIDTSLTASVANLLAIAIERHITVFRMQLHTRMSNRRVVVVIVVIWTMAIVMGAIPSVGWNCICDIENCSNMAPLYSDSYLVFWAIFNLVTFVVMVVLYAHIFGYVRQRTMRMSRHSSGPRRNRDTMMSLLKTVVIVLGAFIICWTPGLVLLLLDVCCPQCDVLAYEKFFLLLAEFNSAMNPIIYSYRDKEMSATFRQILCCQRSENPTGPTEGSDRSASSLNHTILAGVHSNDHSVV
"Effect per se (human LPA1 receptor [1]; CHOLPA1, calcium mobilization)",Agonism Emax (human LPA2 receptor [2]; [11]),DMR response (human LPA2 receptor [2]),"Effect per se (human LPA2 receptor [3]; CHOLPA2, calcium mobilization)","Agonism Emax (human LPA2 receptor [3]; CHOLPA2, calcium mobilization)","Agonism pEC50 (human LPA2 receptor [3]; CHOLPA2, calcium mobilization)",Agonism Emax (human LPA1 receptor [4]; [12]),DMR response (human LPA1 receptor [4]),SMILES,"Shift of the concentration–response curve to LPA (human LPA1 receptor [1]; CHOLPA1, calcium mobilization)","Shift of the concentration–response curve to LPA (human LPA2 receptor [2]; CHOLPA2, DMR)","Shift of the concentration–response curve to LPA (human LPA2 receptor [3]; CHOLPA2, calcium mobilization)",DMR response (CHO wild-type cells),"Shift of the concentration–response curve to LPA (human LPA1 receptor [4]; CHOLPA1, DMR, 1 µM)",other results
did not produce any effect per se,−94 ± 6 pm,−119 ± 25 pm,did not produce any effect per se,Inactive^#,Inactive^#,Inactive°,−31 ± 17 pm,O=C1C[C@@](O)(C(F)(F)F)c2c(-c3cccc(F)c3)n[nH]c2N1 [Compound 20],did not shift the concentration–response curve to LPA to the right,shifted the concentration–response curve to LPA to the right,shifted the concentration–response curve to LPA to the right,−26 ± 8 pm,did not shift the concentration–response curve to LPA to the right,"Kb (human LPA1 receptor [1]; Antagonism pKB/pA2, CHOLPA1, calcium mobilization, LPA curve in absence and presence of 1 µM compound): > 1000 nM; Agonism Emax (human LPA1 receptor [1]; [10]): Inactive^#; Agonism pEC50 (human LPA1 receptor [1]; [10]): Inactive^#; EC50 (human LPA2 receptor [2]): 148 nM; Agonism Emax (human LPA2 receptor [2]; CHOLPA2, DMR, negative DMR signal, peak, up to 10 µM (compound 35 up to 1 µM), °inactive at 10 μM, listed as Merck compound 20): −94 pm; Time of maximum peak modification of the DMR response after administration (human LPA2 receptor [2]; CHOLPA2, DMR, slow onset): ~60 min; Kb (human LPA2 receptor [3]): 56.2 nM; Effect on LPA maximal effect (human LPA2 receptor [3]; CHOLPA2, calcium mobilization, tested as antagonist): induced a reduction in LPA maximal effects; pIC50 (LPA2 receptor): > 6; DMR effect per se (CHO wild-type cells; CHO wild-type cells, 10 µM): failed to evoke effects per se; Agonism pEC50 (human LPA1 receptor [4]; CHOLPA1, DMR, negative DMR signal (inverse agonism), peak, up to 10 µM (compound 35 up to 1 µM), °inactive at 10 μM): Inactive°; DMR effect per se (human LPA1 receptor [4]; CHOLPA1, DMR, up to highest concentration tested (10 μM; compound 35 1 µM)): inactive up to 10 μM"
did not produce any effect per se,Crc incomplete,−95 ± 4 pm,did not produce any effect per se,Inactive^#,Inactive^#,−110 ± 17 pm,−101 ± 7 pm,Cc1noc(-c2ccc(CSCCC(=O)O)cc2)c1NC(=O)OC(C)c1ccccc1Cl (stereo not shown) [KI 16425],shifted the concentration–response curve to LPA to the right,shifted the concentration–response curve to LPA to the right,shifted the concentration–response curve to LPA to the right,−42 ± 7 pm,shifted the concentration–response curve to LPA to the right,"Kb (human LPA1 receptor [1]; Antagonism pKB (pKB/pA2), CHOLPA1, calcium mobilization, Gaddum method, LPA curve in absence and presence of 0.1 µM antagonist): 3.09 nM; Agonism Emax (human LPA1 receptor [1]; [13]): Inactive*; Agonism pEC50 (human LPA1 receptor [1]; [13]): Inactive*; Antagonism pKB (pKB/pA2) (human LPA1 receptor [1]; CHOLPA1, calcium mobilization, Gaddum method, LPA curve in absence and presence of 0.1 µM antagonist): ~8.5; Effect on LPA maximal effect (human LPA1 receptor [1]; CHOLPA1, calcium mobilization, tested as antagonist): reduced the LPA maximal effect in a concentration-dependent manner; DMR effect per se (human LPA2 receptor [2]; CHOLPA2, DMR, concentration–response up to highest concentration tested): inactive per se, or slightly active only at the higher concentration tested; Agonism pEC50 (human LPA2 receptor [2]; [11]): Crc incomplete; Inverse agonism activity (LPA1 receptor [5]): slight degree of inverse agonism activity; Inverse agonism activity (LPA1 receptor [6]): this has not been replicated; Inverse agonism activity (LPA1 receptor [7]): slight degree of inverse agonism activity; Selectivity for LPA1/3 vs. LPA2 (LPA1/3 [8]): 20 fold; Ki (LPA1/3 [9]): 670 nM; EC50 (human LPA1 receptor [4]; Agonism pEC50, CHOLPA1, DMR, negative DMR signal (inverse agonism), peak, up to 10 µM (compound 35 up to 1 µM), °inactive at 10 μM): 67.6 nM; Effect on LPA maximal effect (human LPA1 receptor [4]; CHOLPA1, DMR, tested as antagonist, 1 µM): without changing the maximal effect"

# Reference: publication PMC10682101, “In vitro pharmacological characterization of standard and new lysophosphatidic acid receptor antagonists using dynamic mass redistribution assay” (Frontiers in Pharmacology, 2023)
